The source of these data is a melting point compilation (Tetko et al.; mined from patent text by program, amines drawn as free bases though some values may be those of a salt).

One may read the melting point as the temperature of the solid-liquid transition.

For the molecule `O=[N+]([O-])c1ccc2c(c1)CCNCC2`, the melting point lay in the range of 53 to 56 °C. The molecule `O=[N+]([O-])c1ccc2c(C3=CCN(CCCOc4cccc5[nH]ccc45)CC3)c[nH]c2c1` registered a melting point of 215 to 225 °C.

As to `C[C@@H]([C@@H](O)c1ccc(OCc2ccccc2)cc1)N1C2CCC1CC(=Cc1ccccc1)C2` (relative stereo), the melting point is 145 to 148 °C. Under `CCOC(=O)/C=C(C)/C(F)=C/C=C(C)/C=C/c1c(C)sc(C)c1C` stands 73 to 75 °C; under `O=c1ccc(C(F)(F)F)cn1Cc1ccc(F)cc1`, 70.1 to 72 °C; under `CC(C)c1n[nH]c2c(O)ncnc12`, 302 to 304 °C. Take `O=C(NCC1CC1)N1CC(Oc2cccc(C(F)(F)F)c2)C1`: the melting point lay in the range of 132 to 133 °C. Under `CCOC(=O)C=Cc1cc(-n2nc3ccc(Cl)cn3c2=O)c(F)cc1Cl` stands 162 to 165 °C; under `O=C(O)CCCC/C=C(\c1ccc(C2=N[C@H](C(=O)NCCCCC3CCCCC3)CO2)cc1)c1cccnc1`, 61 °C. The value for `Nc1nc2ccccc2c2c1nc(CC1CC1)n2CCOc1ccccc1` was 192 to 193 °C; that for `Cc1cc(OCc2oc(-c3ccc(C(F)(F)F)cc3)nc2C)ccc1OCC(=O)O` was 136 to 137 °C. The value for `Cc1cc2c(cc1Br)C(=O)CC(C)(C)O2` was 95 to 96 °C; that for `CCCOc1c(OC)cc(C=O)cc1S(=O)(=O)CCO` was 111 to 112 °C; that for `NC(=O)Cn1cc(C(=O)c2ccn3c2CSC3c2cccnc2)c2ccc(-c3ccc(F)cc3)cc21` (configuration not stated) was 215 to 225 °C. `CC(=O)c1cccc(NC(=O)c2ccc3oc(COCc4ccccc4)cc3c2)c1O`: the melting point was in the range of 92 to 94 °C.

The molecule `N=C(N)Nc1nc(CSCCNc2ncccc2C(=O)O)cs1` displayed a melting point of 141 to 145 °C. The molecule `CCn1ncc2c1ncc1c(=O)[nH]c3cc(C)nn3c12` displayed a melting point of 285 to 286 °C. For `COc1ccc([C@@H]2Sc3ccccc3N(CCN(C)C)C(=O)[C@@H]2OC(=O)c2ccc([N+](=O)[O-])cc2Cl)cc1`, the melting point was in the range of 153 to 156 °C. Under `CCCCCCCCOc1cc(-c2cccc(Cl)c2)c(OCC(=O)O)c(-c2cccc(Cl)c2)c1` stands 113 to 116 °C; under `COc1ccc(OC(C(=O)O)c2ccccc2)cc1` (configuration not stated), 108 to 110 °C. In turn, `CC(C)(C)OC(=O)NC[C@H]1CC[C@H](NC(=O)OCc2ccccc2)CC1` gave a melting point of 130 to 131 °C. The molecule `O=S(=O)(Nc1ccc(C(F)(F)F)cc1I)c1ccccc1` registered a melting point of 84 to 86 °C.

Molecule `Cc1nnc2c(Cl)nc3ccccc3n12` had a melting point of 215 to 222 °C. The molecule `COc1cc2c3c(n(C(=O)c4ccccc4)c2cc1OC)CCC(C(=O)O)C3` (configuration not stated) showed a melting point of 191 to 194 °C.

Turning to `COC(=O)c1cnc2c(O)cccc2c1`, the melting point was determined as 140 °C. `C=CCOc1ccc(C(=O)C=Cc2cc(OC)c(C)c(OC)c2)cc1` showed a melting point of 143 to 144 °C. `COc1ccc2c(c1)C(=O)C(Cc1cccc(NS(=O)(=O)C(F)(F)F)c1)CC2` (configuration not stated) had a melting point of 152 to 154 °C.

Molecule `CN(C(=O)OCc1ccccc1)c1ccc(OCC(=O)O)cc1` yielded a melting point of 96 to 97 °C. For the molecule `CC(C)(C)c1cc(Cn2nc(CCCCCCCCc3nn(Cc4cc(C(C)(C)C)c(O)c(C(C)(C)C)c4)c(=O)o3)oc2=O)cc(C(C)(C)C)c1O`, the melting point was found to be 142 °C. Under `COc1nc(NCCCN2CCOCC2)nc(OC)c1NC(=O)c1coc(Oc2cccc(C(C)(C)C)c2)n1` stands 85 °C. In the case of `Oc1ccc2c(c1)CCCC2Cc1c[nH]cn1` (configuration not stated), the melting point fell in the range of 200 to 205 °C. `CC(C)CCc1c(-c2ccc(S(N)(=O)=O)cc2)cnn(-c2ccc(F)c(Cl)c2)c1=O` had a melting point of 154 to 156 °C. For the molecule `O=c1[nH]cccc1CCCCCCCCCCCCc1ccc[nH]c1=O`, the melting point worked out at 210 °C.

Consider `C#CCOC(=O)c1ccccc1C1=NC(=O)C(C)(C(C)C)N1` (configuration not stated), for which the melting point fell in the range of 131 to 144 °C.

Molecule `O=c1[nH]nc2n1-c1ccc(N3CCCC3)nc1C(c1ccccc1Cl)=NC2` had a melting point of 228 to 230 °C. `FC(F)=C(F)CCSc1nnc(-c2ccc(Cl)cc2)s1` showed a melting point of 68 to 69 °C. The value for `CC1NC2=NCCN2C1c1ccccc1` (configuration not stated) was 179 °C.

`Cc1cc(F)c(-n2c(=O)oc3c(c2=O)CCC3)cc1OC(C)C` displayed a melting point of 131 to 133 °C.

`N#CC(CCN1C2CCC1CC2)(c1ccccc1)c1ccccc1`: the melting point lay within 79 to 81 °C. Under `NNC(=S)c1cc(F)c2ncc(C(=O)NCc3ccc(Cl)cc3)c(O)c2c1` stands 317 to 319 °C; under `CC(=O)N(c1cc2occc(=O)c2cc1Oc1ccc(F)cc1F)S(C)(=O)=O`, 176 to 178 °C. On to `CCCCn1nc2c(N)nc3ncccc3c2c1CC(C)(C)O`, for which the melting point was in the range of 232 to 235 °C.

`COc1cccc(CNc2ncnc3c2sc2nc(N(C)C)c4c(c23)C(C)(C)CC4)c1OC` registered a melting point of 91.9 to 93.6 °C. With `FC(F)(F)c1cccc(CSc2nnc(-c3ccc4nccn4c3)o2)c1`, the melting point was 147 to 148 °C. The value for `CCCCOCCOc1ccc(-c2ccc(N3CC(C)C(C)C3)c(C=C(C)C(=O)O)c2)cc1` (configuration not stated) was 126 to 128 °C; that for `CCCCOc1cc2ccc(C(=O)O)cc2cc1OCCCC` was 168 to 169 °C.

The molecule `CCCCc1nc(Cl)c(C=O)n1Cc1ccc2oc(-c3ccccc3-c3nnn[nH]3)c(Br)c2c1` came in with a melting point of 122 to 124 °C. For the molecule `NC(=O)c1cccc(Cc2c[nH]cn2)c1O`, the melting point came out at 198 °C. Under `c1cc2nc3c(n2nc1N1CCOCC1)CCCC3` stands 188 °C. As for `C[C@@H](Oc1ccc2c(c1)N(C)C(=O)N(c1ccc(Cl)cc1)S2(=O)=O)C(=O)O`, the melting point was 85 to 95 °C.

As to `CCCCCCCCCCCCCCCCCCOc1ccc2ccccc2c1O`, the melting point lay within 58 to 59 °C. `CN(C(C)(C)CC(=O)Oc1ccccc1C(C)(C)C)S(=O)(=O)C(F)(F)F` returned a melting point of 42 to 44 °C.

Turning to `CCC(=O)Nc1c(C(=O)c2cc(Cl)ccc2NC(C)=O)[nH]c2cc(Cl)ccc12`, the melting point was in the range of 264 to 266 °C. The molecule `Cc1cc(Oc2ccccc2C(F)(F)F)nn1C(=O)Nc1ccccc1` registered a melting point of 87 to 89 °C. Under `Cc1cccc2c(=O)[nH]c(CCN3CCCC(O)C3)cc12` (configuration not stated) stands 180 to 181 °C; under `CCn1cnc2c(cnc3c2cnn3CC)c1=O`, 167 to 169 °C.

`Cc1ccccc1-c1ccc(C(=O)N2Cc3ccc(C(=O)NC(C)c4ccccc4)n3Cc3ccccc32)cc1C` (configuration not stated) came in with a melting point of 118 to 124 °C. The molecule `CCCCCCCCNC(=O)CCCC(C)(C)c1ccc(O)cc1O` yielded a melting point of 110 to 113 °C. On to `CCc1nc(CC)c(CO)c(-c2ccccc2)c1C=C(C)C`, for which the melting point lay within 103 to 104 °C. Under `Cn1cc(C2=C(c3c4n(c5ccccc35)CCC(CCN)C4)C(=O)NC2=O)c2ccccc21` (configuration not stated) stands 160 to 165 °C; under `CC(=O)NC1(c2ccc(CN3CCN(c4ccc(F)cc4)CC3)cc2)CC1`, 124 to 126 °C. For `COc1cc(C=C(Br)Br)cc(OC)c1OCc1ccccc1`, the melting point lay within 76 to 77 °C. `O=c1c2ccccc2sc2cccc(Oc3cc(Cl)cc(Cl)c3)c12` gave a melting point of 207 to 213 °C.

`CCc1ncc2n1N=C(c1ccc(N)cc1)c1cc3c(cc1C2)OCO3`: the melting point fell in the range of 135 to 138 °C. Under `Cc1cnc2n1-c1ccc(Cl)cc1C(c1ccccc1)=NC2` stands 190 to 191 °C; under `CC(C)Cn1cnc2c(C(N)=O)nc3ccccc3c21`, 225 to 226 °C; under `O=C1Oc2ccc(Br)cc2C1c1ccc(Cl)cc1Cl` (configuration not stated), 149 to 150 °C. The molecule `C=CCO[C@H]1[C@H](C)OC(=O)[C@@H](NC(=O)c2nccc(OC)c2OCc2ccccc2)COC(=O)[C@@H]1Cc1ccccc1` returned a melting point of 55 to 57 °C.

For `CC(Sc1ccc(Cl)cc1Cl)C(=O)O` (racemic), the melting point was in the range of 95 to 98 °C. Turning to `CN(C)C(=O)Nc1c(C(=O)c2ccccc2)[nH]c2cc(Cl)ccc12`, the melting point was in the range of 222 to 223 °C. Regarding `COc1cc(Cl)nc(S(C)(=O)=O)n1`, the melting point was 68 to 74 °C. Under `COc1cc(C(=O)Nc2ccc3ccc(Cl)nc3n2)cc(OC)c1OC` stands 210 °C; under `Nc1c(-c2ccc(I)cc2)nc2ccc(F)cc2c1C(=O)O`, 251 to 253 °C. Regarding `O=S(=O)(Cl)c1ccc(-c2ccc(F)cc2)s1`, the melting point is 82 to 85 °C. Regarding `CCc1noc(-c2ncn(-c3cccc(OCc4ccccc4)c3)c2COC)n1`, the melting point was in the range of 63 to 64 °C.

The molecule `CCNc1cc(C(=O)O)cc(S(N)(=O)=O)c1Oc1ccccc1` displayed a melting point of 236 to 237 °C.

`COC(=O)C=C(c1ccccc1)c1ccc2nc(N)n(S(=O)(=O)C(C)C)c2c1`: the melting point was 160 to 165 °C.

`CCCCC(CNC(=O)Nc1c(C(C)C)cccc1C(C)C)c1cccc(C)c1` (configuration not stated): the melting point fell in the range of 173 to 174 °C. As for `CCn1c(=O)c(C(=O)O)c(O)c2ccc(C)nc21`, the melting point was 162 to 165 °C. Under `O=C(CCc1ccc(NC(=O)C(F)(F)F)c([N+](=O)[O-])c1)Nc1ccc(Cl)cc1Cl` stands 193 to 194 °C. The value for `O=C(CC1=C(n2nc(-c3c(-c4ccccc4)nn4ccccc34)ccc2=O)CCCC1)N1CCN(C(c2ccccc2)(c2ccccc2)c2ccccc2)CC1` was 250 °C.

`CCN(CC)CC#CC(=O)Nc1ccc2ncc(C#N)c(Nc3ccc(F)c(Cl)c3)c2c1` returned a melting point of 117 to 120 °C.

`CCOC(=O)N1CCN(c2nnc(N)[nH]2)CC1` displayed a melting point of 196 to 198 °C. The value for `COCCOc1cc2nccc(Oc3cccc(O)c3)c2cc1C#N` was 159 to 163 °C; that for `CCC1c2cccn2-c2ccc(F)cc2N1S(=O)(=O)c1cc(C)c(O)c(C)c1` (configuration not stated) was 216 to 218 °C; that for `COc1ccc(NC(=O)OC(C)(C)C)cc1` was 93 to 94 °C. `Nc1ccc2c(=O)n3c(nc2c1)C(=Cc1ccc(C(=O)O)cc1)CC3`: the melting point was 336 to 339 °C.
